Results reported in US20220017512A1 (SHANGHAI ENNOVABIO PHARMACEUTICALS CO., LTD., priority 2018, published 2022).

How the values were obtained:
Recombinant human TRKA = target: T1, Recombinant human TRKA (Homo sapiens, UniProt P04629); test: In vitro activity test on TRKA kinase (HTRF KinEASE TK); assay type: biochemical; details: 14.68 μM ATP, 40 min
T1 construct: purchased Carna Biosciences
In short: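 Reaction: 0.2 ng/μL TRKA, 1 μM biotinylated TK substrate, 14.68 μM ATP, 5 mM MgCl2, 1 mM DTT, 1% DMSO, 40 min at room temperature. Compounds tested at 1 μM to 0.05 nM (10-point, 3-fold, duplicate). HTRF 665/620 ratio converted to % inhibition versus no-compound control; IC50 by 4-parameter fit.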

Recombinant human TRKB = target: T2, Recombinant human TRKB (Homo sapiens, UniProt Q16620); test: In vitro activity test on TRKB kinase (HTRF KinEASE TK); assay type: biochemical; details: 4.77 μM ATP, 50 min
T2 construct: purchased Carna Biosciences
T2 sequence (Q16620 32-822): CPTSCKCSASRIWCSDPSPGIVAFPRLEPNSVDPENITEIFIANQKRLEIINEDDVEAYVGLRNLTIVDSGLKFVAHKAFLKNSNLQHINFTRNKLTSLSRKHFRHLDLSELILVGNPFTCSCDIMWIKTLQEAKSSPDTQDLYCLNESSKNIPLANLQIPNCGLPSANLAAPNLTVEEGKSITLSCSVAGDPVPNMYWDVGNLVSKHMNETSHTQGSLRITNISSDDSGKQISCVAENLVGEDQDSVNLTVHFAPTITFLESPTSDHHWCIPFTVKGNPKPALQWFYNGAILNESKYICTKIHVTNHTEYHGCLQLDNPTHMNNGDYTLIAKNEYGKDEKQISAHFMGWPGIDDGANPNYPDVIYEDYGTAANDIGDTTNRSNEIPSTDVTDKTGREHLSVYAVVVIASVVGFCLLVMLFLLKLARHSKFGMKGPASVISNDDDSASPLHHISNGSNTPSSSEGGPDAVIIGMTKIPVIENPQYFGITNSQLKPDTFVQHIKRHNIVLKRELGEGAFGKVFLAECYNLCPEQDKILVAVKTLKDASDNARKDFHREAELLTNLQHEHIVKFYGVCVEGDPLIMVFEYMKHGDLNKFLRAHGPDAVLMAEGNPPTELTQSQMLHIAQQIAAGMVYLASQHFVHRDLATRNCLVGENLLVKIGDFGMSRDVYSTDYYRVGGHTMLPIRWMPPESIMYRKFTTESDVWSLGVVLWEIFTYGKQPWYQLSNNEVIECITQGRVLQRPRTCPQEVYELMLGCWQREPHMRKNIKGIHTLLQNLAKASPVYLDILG
In short: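 Recombinant human TRKB (0.037 ng/μL) phosphorylated 1 μM biotinylated TK substrate at 4.77 μM ATP, 5 mM MgCl2, 1% DMSO, 50 min at room temperature; compounds 1 μM–0.05 nM. HTRF KinEASE detection overnight; 665/620 ratio converted to inhibition and IC50 from 4-parameter fit.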

Recombinant human TRKC = target: T3, Recombinant human TRKC (Homo sapiens, UniProt Q16288); test: In vitro activity test on TRKC kinase (HTRF KinEASE TK); assay type: biochemical; details: 25.64 μM ATP, 40 min
T3 construct: purchased Carna Biosciences
T3 sequence (Q16288 32-839): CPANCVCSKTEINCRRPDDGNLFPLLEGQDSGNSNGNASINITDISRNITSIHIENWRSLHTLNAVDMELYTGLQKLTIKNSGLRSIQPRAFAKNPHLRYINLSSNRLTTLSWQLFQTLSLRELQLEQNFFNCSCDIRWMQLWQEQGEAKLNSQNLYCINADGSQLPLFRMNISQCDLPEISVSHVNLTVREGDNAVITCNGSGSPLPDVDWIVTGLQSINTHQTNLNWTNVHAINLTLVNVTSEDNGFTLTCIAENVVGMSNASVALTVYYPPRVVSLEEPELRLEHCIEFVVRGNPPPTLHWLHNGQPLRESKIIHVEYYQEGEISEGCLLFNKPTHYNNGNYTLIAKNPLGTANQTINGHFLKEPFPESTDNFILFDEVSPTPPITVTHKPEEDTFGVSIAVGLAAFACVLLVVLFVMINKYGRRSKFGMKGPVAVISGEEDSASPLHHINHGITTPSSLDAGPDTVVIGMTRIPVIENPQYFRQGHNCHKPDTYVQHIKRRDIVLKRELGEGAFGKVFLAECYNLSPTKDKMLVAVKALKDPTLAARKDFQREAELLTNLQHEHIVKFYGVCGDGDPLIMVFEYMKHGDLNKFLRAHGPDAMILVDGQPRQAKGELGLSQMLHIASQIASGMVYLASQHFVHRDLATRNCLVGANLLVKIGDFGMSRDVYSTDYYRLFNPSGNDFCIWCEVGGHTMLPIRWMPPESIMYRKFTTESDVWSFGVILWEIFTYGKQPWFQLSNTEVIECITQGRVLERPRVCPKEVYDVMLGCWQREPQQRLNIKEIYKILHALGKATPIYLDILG
In short: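 Recombinant human TRKC (0.037 ng/μL) with 1 μM biotinylated TK substrate, 25.64 μM ATP, 5 mM MgCl2, 1 mM DTT, 40 min at room temperature; compound 1 μM to 0.05 nM, 1% DMSO. HTRF 665/620 ratio after overnight detection; IC50 from 4-parameter fit.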

[1] = target: T4, recombinant human TRKA (G595R) (Homo sapiens, UniProt P04629, G595R); test: In vitro activity test on mutant TRKA (G595R) (HTRF KinEASE TK); assay type: biochemical; details: 4.5 μM ATP, 30 min
T4 construct: purchased SignalChem
T4 sequence (P04629 33-796 G595R): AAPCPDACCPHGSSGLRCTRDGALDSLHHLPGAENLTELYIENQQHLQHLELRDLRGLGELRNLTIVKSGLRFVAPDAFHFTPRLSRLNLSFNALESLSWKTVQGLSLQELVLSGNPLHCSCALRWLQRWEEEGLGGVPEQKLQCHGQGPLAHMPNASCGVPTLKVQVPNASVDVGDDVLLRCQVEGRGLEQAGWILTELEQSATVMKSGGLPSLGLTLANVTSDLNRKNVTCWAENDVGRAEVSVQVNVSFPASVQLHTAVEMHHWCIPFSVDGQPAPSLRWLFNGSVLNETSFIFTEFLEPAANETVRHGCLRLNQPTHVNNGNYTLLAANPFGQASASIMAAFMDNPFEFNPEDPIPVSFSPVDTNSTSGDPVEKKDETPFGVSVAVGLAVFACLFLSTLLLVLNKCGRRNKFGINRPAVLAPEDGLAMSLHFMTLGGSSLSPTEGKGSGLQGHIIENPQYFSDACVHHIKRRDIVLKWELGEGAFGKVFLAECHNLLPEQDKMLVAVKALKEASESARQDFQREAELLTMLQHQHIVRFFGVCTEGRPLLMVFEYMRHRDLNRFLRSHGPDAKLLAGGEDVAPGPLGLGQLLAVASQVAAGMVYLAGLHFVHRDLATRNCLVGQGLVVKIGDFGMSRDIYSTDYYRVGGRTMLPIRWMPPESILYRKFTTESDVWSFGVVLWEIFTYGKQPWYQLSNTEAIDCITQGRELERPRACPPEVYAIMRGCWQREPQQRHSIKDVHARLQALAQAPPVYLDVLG
In short: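 HTRF KinEASE TK format: 0.12 ng/μL recombinant TRKA (G595R), 1 μM biotinylated TK substrate, 4.5 μM ATP, 5 mM MgCl2, 1 mM DTT, 1% DMSO, 30 min at room temperature; detection overnight. IC50 from 10-point 4-fold series (1 μM to 0.004 nM, duplicates), 665/620 ratio, 4-parameter fit.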

KM12-LUC cells = test: KM12-LUC cell proliferation experiment (CellTiter-Glo, 72 hours); assay type: cell-based; details: Homo sapiens; KM12-LUC cells expressing TPM3-NTRK1 fusion gene
Source text: Biological Test Example 3: KM12-LUC Cell Proliferation Experiment
Human colon cancer cell line KM12-LUC (LUC, stably expressing Luciferase) expressing TPM3-NTRK1 fusion gene was used to evaluate cellular activity of the compounds cellular level. The TRK fusion gene in KM12-LUC cells makes it independent on the stimulation of extracellular growth factor, sustainably self-activate and activate the downstream signal pathway associated with cell proliferation such as MAPK-ERK, PI3K-AKT, or the like. […] The method was as follows: On the first day, the cells were seeded into 384-well plates at 2,000 cells/well; on the second day, different concentrations of test compounds were added; and on the 5th day, CellTiter-Glo (Promega) was added to detect cellular potency, and 72 hours cell proliferation inhibition rate was calculated. Statistical analysis was carried out by Prism5 and the inhibition rate of the test compound were calculated, as shown in FIG. 1.

ΔTRKA(G595R) = target: T5, ΔTRKA(G595R) (Homo sapiens, UniProt P04629, G595R, form not given); test: Detection of TRK kinase activity on cellular level by ELISA, ΔTRKA(G595R)/NIH-3T3 cells; assay type: cell-based; details: NIH-3T3 cells stably expressing ΔTRKA(G595R), 2 hours treatment
T5 construct: NIH-3T3 cell line stably expressing ΔTRKA or ΔTRKA(G595R) was constructed by plasmid transfection
T5 sequence (P04629 440-796 G595R limits assumed, form open): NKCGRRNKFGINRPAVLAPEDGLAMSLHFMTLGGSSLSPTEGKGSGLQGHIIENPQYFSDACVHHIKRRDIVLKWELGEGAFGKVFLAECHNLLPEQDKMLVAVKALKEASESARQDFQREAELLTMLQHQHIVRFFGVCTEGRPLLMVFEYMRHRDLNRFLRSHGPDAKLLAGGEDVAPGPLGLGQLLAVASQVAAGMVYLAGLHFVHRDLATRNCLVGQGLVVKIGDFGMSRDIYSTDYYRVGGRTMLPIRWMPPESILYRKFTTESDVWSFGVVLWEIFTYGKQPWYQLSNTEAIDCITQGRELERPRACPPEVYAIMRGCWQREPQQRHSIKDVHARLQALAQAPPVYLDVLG
Procedure: Biological Test Example 4: Detection of TRK Kinase Activity on Cellular Level by ELISA
NIH-3T3 cell line stably expressing ΔTRKA or ΔTRKA(G595R) was constructed by plasmid transfection.
On the first day, cells were seeded into a 96-well cell culture plate, 10000 cells/well in the medium (DMEM+10% FBS). On the second day, different concentrations of test compounds were added to treat cells for 2 hours, then the cell culture plate was placed on ice; and the supernatant was removed and washed with pre-cooled PBS once. The cells were lysed with NP40 lysis buffer containing protease and phosphatase inhibitor, transferred to an antibody pre-coated plate, and sealed to incubate overnight at 4° C. The remaining steps were proceeded according to the method provided in the ELISA kit (eg, as described in R&D DYC2578-2), results were shown in Table 2.

[2] = target: T6, recombinant human TRKA (G667C) (Homo sapiens, UniProt P04629, G667C); test: In vitro activity test on mutant TRKA (G667C) (HTRF KinEASE TK); assay type: biochemical; details: 5.5 μM ATP, 30 min
T6 construct: purchased SignalChem
T6 sequence (P04629 33-796 G667C): as the sequence (P04629 33-796 G595R) above, with R563G, G635C counted along it
In short: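 HTRF KinEASE TK format with recombinant human TRKA G667C (0.026 ng/μL), 1 μM biotinylated TK substrate, 5.5 […] ATP, 5 mM MgCl2, 1 mM DTT, 1% DMSO; 30 min at room temperature. Detection overnight; 665/620 ratio gives % inhibition, IC50 from 4-parameter fit over 10 doses (1 μM–0.004 nM).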

T1 sequence (P04629 33-796): as the sequence (P04629 33-796 G595R) above, with R563G counted along it

SMILES | IC50 (Recombinant human TRKA) [nM] | IC50 (Recombinant human TRKB) [nM] | IC50 (Recombinant human TRKC) [nM] | IC50 [1] [nM] | IC50 (ΔTRKA(G595R)) [nM] | IC50 [2] [nM] | IC50 (KM12-LUC cells) [nM]
O=C1CNCCN1c1ccc(-c2c(F)cnc3ccc(N4C[C@@H](F)C[C@@H]4c4cc(F)ccc4F)nc23)cn1 [Example 97, 1-(5-(6-((2R,4S)-2-(2,5-difluorophenyl)-4-fluoropyrrolidin-1-yl)-3-fluoro-1,5-naphthyridin-4-yl)pyridin-2-yl)piperazin-2-one] | < 1 | < 10 | < 1 |  |  |  | < 10
Fc1ccc(F)c([C@H]2CCCN2c2ccc3nccc(-c4cnn(C5CCNCC5)c4)c3n2)c1 [Example 7, (R)-2-(2-(2,5-Difluorophenyl)pyrrolidin-1-yl)-8-(1-(piperidin-4-yl)-1H-pyrazol-4-yl)-1,5-naphthyridine] | < 50 | < 100 | < 50 | < 1 | < 10 | < 1 | < 10
[2H]c1nc(-c2cnn(C3CCNCC3)c2)c2nc(N3C[C@@H](F)C[C@@H]3c3cc(F)ccc3F)ccc2n1 [Example 58] | < 1 | < 10 | < 1 | < 1 | < 10 | < 1 | < 10

Second part, led by results:

IC50 (Recombinant human TRKA) [nM] | IC50 (Recombinant human TRKB) [nM] | IC50 (Recombinant human TRKC) [nM] | IC50 [1] [nM] | IC50 (ΔTRKA(G595R)) [nM] | IC50 [2] [nM] | SMILES | IC50 (KM12-LUC cells) [nM]
< 1 | < 10 | < 10 | < 10 | < 10 |  | Fc1ccc(F)c([C@H]2C[C@H](F)CN2c2ccc3ncc(Cl)c(-c4ccc(C5CCNCC5)nc4)c3n2)c1 [Example 63, 7-chloro-2-((2R,4S)-2-(2,5-difluorophenyl)-4-fluoropyrrolidin-1-yl)-8-(6-(piperidin-4-yl)pyridin-3-yl)-1,5-naphthyridine] | < 10
< 1 | < 10 | < 10 | < 10 | < 10 | < 10 | O[C@@H]1CCN(c2ccc(-c3c(Cl)cnc4ccc(N5C[C@@H](F)C[C@@H]5c5cc(F)ccc5F)nc34)cn2)C1 [Example 65, (R)-1-(5-(3-chloro-6-((2R,4S)-2-(2,5-difluorophenyl)-4-fluoropyrrolidin-1-yl)-1,5-naphthyridin-4-yl)pyridin-2-yl)pyrrolidin-3-ol] | < 10
